Experimental findings from patent US10899759B2, “Positive allosteric modulators of the muscarinic acetylcholine receptor M1” (Vanderbilt University, priority 2016, dated 2021) are described below.

One series concerns C57Bl/6 mice. The series can be described thus: Behavioral manifestations of seizure activity (modified Racine scoring). In kind it is in vivo. The conditions noted are these: 100 mg/kg i.p., monitored up to 3 hr for seizure behavior. The procedure:
To evaluate induction of behavioral manifestation of seizure activity, C57Bl/6 mice received administration of vehicle or 100 mg/kg M1 PAM. Compounds were formulated in 10% Tween 80 (pH 7.0) at a concentration of 10 mg/ml and injected i.p. (n=3). Animals were monitored continuously and scored for behavioral manifestations of seizure activity at 5, 10, 15 and 30 min, and 1 and 3 hr. Behavioral manifestations of seizures were scored using a modified Racine scoring system (R. J. Racine, Modification of seizure activity by electrical stimulation. II. Motor seizure. Electroencephalogr. Clin. Neurophysiol. 32, 281 (March, 1972)). Briefly, a score of 0 represents no behavior alterations; score 1, immobility, mouth and facial movements, or facial clonus; score 2, head nodding, tail extension; score 3, forelimb clonus, repetitive movements; score 4, rearing and tonic clonic seizure; and score 5, continuous rearing and falling, severe generalized tonic clonic seizure.

Series [1] can be described thus: Brain tissue distribution study in Sprague-Dawley rat (IV cassette). It counts as in vivo. The conditions noted are these: male, IV cassette 0.2 mg/kg per compound, 0.25 h post-dose; for Kp uu at 0.25 h: brain/plasma (unbound), unbound distribution partition coefficient; for Kp at 0.25 h: brain/plasma, distribution partition coefficient.
Description: The plasma protein and nonspecific brain homogenate binding of certain compounds were determined in plasma or brain homogenate using contemporary equilibrium dialysis and employing HTDialysis™ Teflon dialysis chambers and cellulose membranes (MWCO 12-14 K) from HTDialysis (Gales Ferry, Conn.). Brain tissue homogenate was prepared by diluting one volume whole brain tissue with three volumes of phosphate buffer (pH 7.4). The mixture was then subjected to mechanical homogenation employing a Mini-Beadbeater™ and 1.0 mm Zirconia/Silica Beads from BioSpec Products (Bartlesville, Okla.). Plasma or brain homogenate was fortified with test article and mixed thoroughly for a final concentration of 5 μM for plasma and 1 μM for brain homogenate. Subsequently, 100 μL of the plasma- or brain homogenate-compound mixture was transferred to one side of a dialysis chamber with an accompanying 100 μL of phosphate buffer (pH 7.4) in the opposite side of the chamber. The plate block was sealed and incubated for 6 hours (37° C.) with shaking. Upon completion, aliquots from each chamber were matrix-matched with either plasma or brain homogenate (1:1, buffer side) or buffer (1:1, plasma or brain homogenate side) in a new 96-well plate, at which time the proteins and cell debris/membranes (for brain homogenate) were precipitated with ice-cold acetonitrile containing an internal standard (carbamazepine, 50 nM). The plate was centrifuged (3000 rcf, 10 min) and supernatants diluted (1:1, v/v) via transfer into a fresh 96-well plate containing deionized H2O; the plate was sealed in preparation for LC/MS/MS bioanalysis. The assay was performed in triplicate for each compound.
A cassette of compounds (n=5/cassette) were formulated from 10 mmol L^−1 solutions prepared in DMSO. In order to reduce the absolute volume of DMSO that was administered, the compounds were combined and diluted with ethanol and PEG 400 to achieve a final concentration of 0.4 mg mL^−1 for each compound (2 mg mL^−1 total) administered in each cassette; the maximal dosing volume was 0.5 mL kg^−1 of each animal's body mass. The final dosing solutions consisted of approximately 10% ethanol, 40% PEG400, and 50% DMSO (v/v). Each cassette dose was administered IV via the jugular vein to one dual-cannulated (carotid artery and jugular vein) adult male Sprague-Dawley rat, each weighing between 250 and 350 g (Harlan, Indianapolis, Ind.) for a final dose of 0.2 mg kg^−1 per compound. Whole blood and dissected whole brains were collected at the time of euthanization (0.25 h post-dose), with the whole brain being removed and thoroughly rinsed with cold phosphate-buffered saline prior to freezing on dry ice. […]
A further series concerns the target T1, human mAChR M1 (Homo sapiens, UniProt P11229).
T1 construct: host or cells: CHO-K1
T1 sequence (P11229 1-460): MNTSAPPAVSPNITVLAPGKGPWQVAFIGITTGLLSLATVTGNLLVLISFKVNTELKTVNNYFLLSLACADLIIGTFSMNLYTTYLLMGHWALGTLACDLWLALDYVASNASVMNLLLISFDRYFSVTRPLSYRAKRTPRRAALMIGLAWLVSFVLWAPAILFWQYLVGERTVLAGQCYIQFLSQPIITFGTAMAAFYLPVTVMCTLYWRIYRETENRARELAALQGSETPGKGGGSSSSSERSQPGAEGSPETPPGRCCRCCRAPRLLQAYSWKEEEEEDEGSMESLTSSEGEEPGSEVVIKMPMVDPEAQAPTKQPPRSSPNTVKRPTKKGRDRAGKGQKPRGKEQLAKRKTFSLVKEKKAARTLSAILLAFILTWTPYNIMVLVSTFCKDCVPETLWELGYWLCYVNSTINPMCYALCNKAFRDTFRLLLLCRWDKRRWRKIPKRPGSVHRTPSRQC
The series can be described thus: mAChR M1 cell-based functional assay (calcium mobilization, Fluo-4, FDSS). Conditions: CHO-K1 cells stably expressing hM1; for Emax: EC20 acetylcholine response, read-out: Human M1 Emax; for EC50: positive allosteric modulator activity as increase in the EC20 acetylcholine response. In short, it runs like this:
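CHO-K1 cells stably expressing muscarinic receptor, loaded with Fluo-4; 11-point 1:3 compound series added and calcium flux read over 300 s at 1 Hz. Agonism from direct calcium rise, PAM activity as potentiation of EC20 acetylcholine, antagonism as decrease of EC80 acetylcholine; four-parameter logistic fits.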
(In general: A change in cytosolic calcium serves as a functional read-out for many receptors and channels.)

On to `Cn1cc(-c2ccc(Cc3cc(C(=O)NC4CCOCC4)nc4c3ccn4C)cn2)cn1` [Compound 47, 1-methyl-4-[[6-(1-methylpyrazol-4-yl)-3-pyridyl]methyl]-N-tetrahydropyran-4-yl-pyrrolo[2,3-b]pyridine-6-carboxamide], for which the “Adverse Effect in mice (100 mpk, i.p.)” value in the series on C57Bl/6 mice is “No”. In series [1], the Kp uu at 0.25 h turned out to be 0.32 and the Kp at 0.25 h was 0.28. Also, on human mAChR M1, the Emax was determined as 83.8% and the EC50 was 180 nM.

As for `Cc1nc(-c2ccc(Cc3cc(C(=O)NC4CCOCC4)nc4c3ccn4C)cc2)co1` [Compound 53, 1-methyl-4-[[4-(2-methyloxazol-4-yl)phenyl]methyl]-N-tetrahydropyran-4-yl-pyrrolo[2,3-b]pyridine-6-carboxamide], in the series with C57Bl/6 mice, the “Adverse Effect in mice (100 mpk, i.p.)” value is recorded as “No”. In addition, in series [1], the Kp uu at 0.25 h is 0.85 and the concentration ratio (Kp) at 0.25 h is 0.51. Also, at human mAChR M1, the Emax worked out at 86.4% and the EC50 was determined as 390 nM.

With `Cn1ccc(-c2ccc(Cc3cc(C(=O)N[C@H]4CCCC[C@@H]4O)nc4c3ccn4C)cn2)n1` [Compound 155, N-[(1S,2S)-2-hydroxycyclohexyl]-1-methyl-4-[[6-(1-methylpyrazol-3-yl)-3-pyridyl]methyl]pyrrolo[2,3-b]pyridine-6-carboxamide], on human mAChR M1, the Emax amounted to 65.7% and the EC50 came to 110 nM.

With `Cn1ccc(-c2ccc(Cc3cc(C(=O)N[C@H]4CC[C@@H]4O)nc4c3ccn4C)cn2)n1` [Compound 156, N-[(1S,2S)-2-hydroxycyclobutyl]-1-methyl-4-[[6-(1-methylpyrazol-3-yl)-3-pyridyl]methyl]pyrrolo[2,3-b]pyridine-6-carboxamide], at human mAChR M1, the Emax came to 74.2% and the EC50 came to 920 nM.

On to `CC(NC(=O)c1cc(Cc2ccc(-c3ccn(C)n3)nc2)c2ccn(C)c2n1)C1CCCO1` (stereo not drawn) [Compound 157, 1-methyl-4-[[6-(1-methylpyrazol-3-yl)-3-pyridyl]methyl]-N-(1-tetrahydrofuran-2-ylethyl)pyrrolo[2,3-b]pyridine-6-carboxamide], for which, at human mAChR M1, the Emax is 72.7% and the EC50 stood at 1270 nM.

As to `Cn1ccc(-c2ccc(Cc3cc(C(=O)NC[C@@H]4CCCO4)nc4c3ccn4C)cn2)n1` [Compound 158, 1-methyl-4-[[6-(1-methylpyrazol-3-yl)-3-pyridyl]methyl]-N-[[(2S)-tetrahydrofuran-2-yl]methyl]pyrrolo[2,3-b]pyridine-6-carboxamide], on human mAChR M1, the Emax stood at 72.1% and the EC50 is 360 nM.

The Kp is the ratio of the level in a tissue or fluid to that in plasma or blood. What is called Emax is the greatest response seen or fitted, relative to the assay's reference. Usually EC50 stands for the concentration needed to bring the measured effect to its halfway point.
